# Data as given in article PMC9784874, “Inhibitors of HIV-1 and Cathepsin L Proteases Identified from the Insect Gall of Hypericum kouytchense” (Pharmaceuticals, 2022).
# Read-outs that look alike come from different tables or passages of the source.
# How the values were obtained:
# HIV-1 PR = target: T1, HIV-1 PR (Human immunodeficiency virus type 1 group M subtype B, UniProt P04585); assay: Fluorimetric HIV-1 protease inhibition assay; assay type: biochemical
# T1 construct: 10.0, 4.0, 3.2 and 17.0 µg/mL against HIV-1 protease
# Protocol: (§1) The inhibitory activities against HIV-1, Cat L and Renin PRs were assayed by fluorimetric methods using our previously published protocols.
# Cat L PR = Cat L PR (Homo sapiens, UniProt P07711); assay: Fluorimetric cathepsin L protease inhibition assay; assay type: biochemical; settings: read-out: Cat L PR Inhi% at 100.0 µg/mL
# Protocol: as §1
# [1] = system: HIV replication in H9 lymphocytes; design: method as in PMID 15987189; settings: cited from earlier work
# human renin = target: T2, human renin (Homo sapiens, UniProt P00797); assay: Fluorimetric renin protease inhibition assay; assay type: biochemical; settings: extracts, n = 3
# T2 sequence (P00797 67-406): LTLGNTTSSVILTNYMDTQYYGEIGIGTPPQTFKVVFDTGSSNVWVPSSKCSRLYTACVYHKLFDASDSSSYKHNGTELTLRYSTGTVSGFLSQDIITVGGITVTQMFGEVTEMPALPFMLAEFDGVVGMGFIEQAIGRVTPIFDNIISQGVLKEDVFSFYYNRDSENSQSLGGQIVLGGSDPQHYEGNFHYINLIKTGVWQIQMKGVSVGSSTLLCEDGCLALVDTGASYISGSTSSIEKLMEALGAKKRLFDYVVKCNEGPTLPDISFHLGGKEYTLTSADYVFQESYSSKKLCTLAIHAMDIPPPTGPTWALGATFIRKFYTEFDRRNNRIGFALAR
# Protocol: as §1
# [2] = active compounds, n = 3, read-out: HIV-1 PR IC50 (converted)
# Chain of Cat L PR (P07711 114-333): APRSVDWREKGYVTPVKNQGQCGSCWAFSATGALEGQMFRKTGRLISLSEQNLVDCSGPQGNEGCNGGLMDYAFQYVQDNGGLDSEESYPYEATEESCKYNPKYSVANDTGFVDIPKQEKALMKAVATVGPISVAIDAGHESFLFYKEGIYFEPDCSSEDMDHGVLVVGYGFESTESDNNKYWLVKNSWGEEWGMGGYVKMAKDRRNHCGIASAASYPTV
IC50 Renin PR (human renin) [µg/mL],Compound,IC50 (HIV-1 PR) [µM],HIV-1 PR Inhi% at 1000.0 µg/mL (HIV-1 PR; n = 3) [%],"inhibition at 100 µg/mL (Cat L PR; 100.0 µg/mL, n = 3) [%]",IC50 (HIV-1 PR; [2]) [µM],therapeutic index (TI) [1],inhibition at 100 µg/mL (Cat L PR) [%]
,"O=C1C[C@@H](c2ccc(O)c(O)c2)Oc2cc(O)cc(O)c21 [Eriodictyol, Eriodicytiol]",659,100.0 ± 4.98,14.3 ± 2.32,,,
,O=C(/C=C/c1ccc(O)cc1)c1c(O)cc(O)cc1O [Naringenin chalcone],,100.0 ± 1.96,22.2 ± 6.77,121,,
,C[C@@H]1O[C@@H](OC[C@H]2O[C@@H](Oc3c(-c4ccc(O)c(O)c4)oc4cc(O)cc(O)c4c3=O)[C@H](O)[C@@H](O)[C@@H]2O)[C@H](O)[C@H](O)[C@H]1O [Rutin],,24.8 ± 3.85,-4.81 ± 3.8,,,
,C=C[C@@]1(C)COC(=O)[C@]12O[C@]1(c3ccccc3)[C@H](C2=O)[C@H]2[C@H]([C@H](C)CCC=C(C)C)CC=C(C)[C@H]21 [Biyouyanagin A],,,,,higher than 31.3,
,C[C@@H]1O[C@@H](Oc2cc(O)c3c(c2)O[C@H](c2ccc(O)c(O)c2)[C@@H](O)C3=O)[C@H](O)[C@H](O)[C@H]1O [Taxifolin-7-O-rhamnoside],,68.4 ± 5.45,18.1 ± 0.95,1220,,
,O=c1c(O)c(-c2ccc(O)c(O)c2)oc2cc(O)cc(O)c12 [Quercetin],,50.3 ± 1.40,-3.67 ± 6.59,,,
0.9,Ac–HPFV–(Sta)–LF–NH2 [Renin inhibitor],,,,,,
,C[C@@H]1O[C@@H](Oc2c(-c3ccc(O)c(O)c3)oc3cc(O)cc(O)c3c2=O)[C@H](O)[C@H](O)[C@H]1O [Quercitrin],,94.4 ± 7.86,,44.6,,16.3 ± 3.24
,Cc1cc(O)c2c(=O)c3c(O)cc(O)c4c5c(O)cc(O)c6c(=O)c7c(O)cc(C)c8c1c2c(c34)c(c78)c65 [Hypericin],3.57,100.0 ± 7.87,79.4 ± 2.02,,,
,Oc1cc(O)c2c(c1)O[C@H](c1ccc(O)c(O)c1)[C@H](O)C2 [Epicatechin],,66.0 ± 3.79,-17.7 ± 2.35,2760,,
,O=c1c(O[C@@H]2O[C@H](CO)[C@H](O)[C@H](O)[C@H]2O)c(-c2ccc(O)c(O)c2)oc2cc(O)cc(O)c12 [Hyperoside],84,72.6 ± 1.40,11.8 ± 2.56,,,
